# Laboratory results from US20240319156A1, “DEVICE FOR TESTING VAPORIZABLE FLUIDS IN A HUMAN AIRWAY MODEL” (Rowan University, priority 2022, published 2024).
# Tested on: human airway model tissue
# Conditions: e-cigarette vapor exposure day 20 to day 34; vs untreated 'no battery' tissue
# Description: The investigation compared how human airway model tissue was affected by e-cigarette vapors generated from two different vape-liquids, propylene glycol/vegetable glycerin ‘PG:VG’, and vitamin E acetate ‘VEA’.
# Referring to FIGS. 30A-30B, illustration of experimental design used in research investigation, human airway model tissues were formed from day 0 to day 20, tissues were exposed to experimental vapors from day 20 to day 34.
structure (smiles),measurement,value
"CC(=O)Oc1c(C)c(C)c2c(c1C)CCC(C)(CCC[C@H](C)CCC[C@H](C)CCCC(C)C)O2 (stereo partly shown) [VEA, vitamin E acetate]",tissue morphology in stained cross-sections,present typical structure and are undamaged
